According to patent US7935806B2, “Method for performing in vitro diagnosis using gene regulation mechanisms and corresponding diagnosis kit” (Unisensor S.A., priority 2001, dated 2011):

How the values were obtained:
avidin = molecular target: T1, avidin (Gallus gallus, UniProt P02701); conditions: non-covalent; cited from earlier work
T1 construct: The avidin is a tetrameric glycoprotein isolated from egg-white; from tissue; host or cells: egg-white

MetJ = MetJ (Escherichia coli, UniProt P0A8U6); conditions: in the presence of the co-repressor; cited from earlier work
tetR of class C = molecular target: T2, tetR of class C (Escherichia coli, UniProt P03039); format: binding, E. Coli C600; conditions: 25 ppb in honey, read with the naked eye
T2 construct: two primers have been selected for amplification by PCR of the gene which has then been cloned in a pet12a-expression plasmid; made in house; host or cells: E. coli HB101 carrying pT7po123; expression plasmid pet12a
T2 sequence (P03039 whole entry): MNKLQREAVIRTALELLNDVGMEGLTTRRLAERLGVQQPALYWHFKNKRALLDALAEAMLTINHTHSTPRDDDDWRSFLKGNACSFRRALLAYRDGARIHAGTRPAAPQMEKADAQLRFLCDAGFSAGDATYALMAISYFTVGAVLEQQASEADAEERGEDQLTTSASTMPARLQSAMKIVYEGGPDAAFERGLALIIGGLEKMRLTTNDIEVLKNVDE
Procedure: In the example showing the measurement of the concentration based on samples of honey, one unpurified part of serum obtained above is placed in the presence of one part of tetR receptor obtained above in 1.1.1, 15 parts of A-protein marked by means of particles of colloidal gold of 40 nm and one DO at 500 nm of 10 (available from Unisensor S.A., Liege, Belgium) and 20 parts of lyophilisation buffer (Tris 10 mM, pH 8, BSA 5 mg/ml, sucrose 10 g/l). This mixture is lyophilised for 20 hours.
To 1 gram of honey are added 3 ml of dilution buffer (for 1 litre, 2.73 g of Na2HPO4.2H2O, 1.65 g of citric acid, 7 g of BSA and 2.5 g of Tween-20, pH 5) and the solutin is stirred vigorously so as to obtain a homogeneous solution. 200 μl of this dilution of the sample of honey are then incubated in the presence of the lyophilisate prepared above (see Point 1.1.2.2). After 10 minutes of incubation at ambient temperature (±20° C.), the analysis strip described above at 1.3 is immersed in the solution. The final interpretation is made with the naked eye, after 15 minutes of incubation at ambient temperature.

Sequence of MetJ (P0A8U6 2-105): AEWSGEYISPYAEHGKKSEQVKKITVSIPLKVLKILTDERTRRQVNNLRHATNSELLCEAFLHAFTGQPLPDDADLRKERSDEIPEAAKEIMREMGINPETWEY
T1 sequence (P02701 25-152): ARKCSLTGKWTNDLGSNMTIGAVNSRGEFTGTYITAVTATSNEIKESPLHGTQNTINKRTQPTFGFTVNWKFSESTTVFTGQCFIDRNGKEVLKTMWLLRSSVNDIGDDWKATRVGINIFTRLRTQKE

## O=C(O)CCCC[C@@H]1SC[C@@H]2NC(=O)N[C@@H]21 [biotin]
avidin
  affinity of avidin sub-unit for biotin (Ka): 10^15 M^−1

## C[S+](CC[C@H](N)C(=O)[O-])C[C@H]1O[C@@H](n2cnc3c(N)ncnc32)[C@H](O)[C@@H]1O (stereo partly drawn) [s-adenosylmethionine]
MetJ
  increase of MetJ affinity for DNA: more than 1,000 times

## CN(C)[C@@H]1C(O)=C(C(N)=O)C(=O)[C@@]2(O)C(O)=C3C(=O)c4c(O)ccc(Cl)c4[C@@H](O)[C@H]3C[C@@H]12 [demedocycline]
tetR of class C
  test result (test signal lower than control signal = positive): positive result
